Data reported in PubChem BioAssay AID248 (DTP/NCI, 2004).
“And” between values parts separate entries of the source, which are not always exact repeats. Equal entries are not always repeated. Inconclusive results and toxic doses are left out. Cut-off read from the data, not from the text of the source: active = T/C of 150% or more; inactive = T/C below 125%.

Tested on: L1210 leukemia ip in BDF1 mice, survival T/C
Experiment: NCI In Vivo Anticancer Drug Screen. Data for tumor model L1210 Leukemia (intraperitoneal) in B6D2F1 (BDF1) mice
Details: endpoint: mean survival time, higher = longer survival
In short: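 Mice bearing the transplanted tumor received compound or vehicle. Survival of the treated group was divided by that of the vehicle-treated control group to give the ratio.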

[1] = dose: 25.0 mg/kg/injection, schedule: Q01DX009 (ip), vehicle: saline
[2] = dose: 100.0 mg/kg/injection, schedule: Q04DX003 (ip), vehicle: saline with Tween-80
[3] = dose: 200.0 mg/kg/injection, schedule: Q04DX003 (ip), vehicle: saline with Tween-80
[4] = dose: 400.0 mg/kg/injection, schedule: Q04DX003 (ip), vehicle: saline with Tween-80
[5] = dose: 100.0 mg/kg/injection, schedule: Q04DX003 (ip), vehicle: saline
[6] = dose: 100.0 mg/kg/injection, schedule: Q04DX003 (ip), vehicle: Klucel (hydroxypropylcellulose) (HPC)
[7] = dose: 400.0 mg/kg/injection, schedule: Q01DX001 (ip), vehicle: carboxymethylcellulose (CMC)
[8] = dose: 100.0 mg/kg/injection, schedule: Q04DX003 (ip), vehicle: saline sonified
[9] = dose: 6.25 mg/kg/injection, schedule: Q04DX003 (ip), vehicle: saline with Tween-80
[10] = dose: 25.0 mg/kg/injection, schedule: Q04DX003 (ip), vehicle: saline with Tween-80
[11] = dose: 50.0 mg/kg/injection, schedule: Q01DX009 (ip), vehicle: saline
[12] = dose: 100.0 mg/kg/injection, schedule: Q01DX001 (ip), vehicle: saline
[13] = dose: 200.0 mg/kg/injection, schedule: Q01DX001 (ip), vehicle: saline

Measured: T/C

CN(C)/N=C/c1ccc[n+](C)c1
inactive: dose: 6.25 mg/kg/injection, schedule: Q01DX009 (ip), vehicle: saline 113 % of control | dose: 12.5 mg/kg/injection, schedule: Q01DX009 (ip), vehicle: saline 109 % of control | [1] 98 % of control and 110 % of control

CCC(=O)c1ccc(OCC(O)CN2CCN(c3ccccc3OC)CC2)cc1 (stereo unspecified)
inactive: [2] 96 % of control | [3] 96 % of control | [4] 103 % of control

CC1=CC(C)(C)SC(=S)N1
inactive: dose: 75.0 mg/kg/injection, schedule: Q01DX009 (ip), vehicle: Klucel (hydroxypropylcellulose) (HPC) 98 % of control | [5] 111 % of control | dose: 150.0 mg/kg/injection, schedule: Q01DX009 (ip), vehicle: Klucel (hydroxypropylcellulose) (HPC) 104 % of control | dose: 200.0 mg/kg/injection, schedule: Q04DX003 (ip), vehicle: saline 104 % of control | dose: 300.0 mg/kg/injection, schedule: Q01DX009 (ip), vehicle: Klucel (hydroxypropylcellulose) (HPC) 108 % of control | dose: 400.0 mg/kg/injection, schedule: Q04DX003 (ip), vehicle: saline 96 % of control

CN(C)C(=Nc1ccc(NC(=O)c2ccc(C(=O)Nc3ccc(N=C(Nc4ccccc4)N(C)C)cc3)cc2)cc1)Nc1ccccc1
inactive: dose: 1.5 mg/kg/injection, schedule: Q01DX Z (ip), vehicle: carboxymethylcellulose (CMC) 95 % of control | dose: 3.0 mg/kg/injection, schedule: Q01DX Z (ip), vehicle: carboxymethylcellulose (CMC) 97 % of control | dose: 6.0 mg/kg/injection, schedule: Q01DX Z (ip), vehicle: carboxymethylcellulose (CMC) 107 % of control | dose: 12.0 mg/kg/injection, schedule: Q01DX Z (ip), vehicle: carboxymethylcellulose (CMC) 89 % of control

CS(=O)(=O)c1ccc(F)cc1
inactive: [6] 103 % of control | dose: 200.0 mg/kg/injection, schedule: Q04DX003 (ip), vehicle: Klucel (hydroxypropylcellulose) (HPC) 103 % of control | dose: 400.0 mg/kg/injection, schedule: Q04DX003 (ip), vehicle: Klucel (hydroxypropylcellulose) (HPC) 97 % of control

CC(=O)OCC(O)C(O)C(O)C(O)CO (stereo unspecified)
inactive: [2] 91 % of control | [3] 94 % of control | [4] 91 % of control

CC(=O)Oc1ccc(NC(=O)c2ccccc2)c2ccccc12
inactive: dose: 100.0 mg/kg/injection, schedule: Q01DX001 (ip), vehicle: carboxymethylcellulose (CMC) 110 % of control | dose: 200.0 mg/kg/injection, schedule: Q01DX001 (ip), vehicle: carboxymethylcellulose (CMC) 100 % of control | [7] 94 % of control

Cn1cnnc1[N+](=O)[O-]
inactive: [8] 105 % of control

Cc1cc(=O)c2c(C)cccc2[nH]1
inactive: dose: 6.25 mg/kg/injection, schedule: Q01DX009 (ip), vehicle: saline sonified 101 % of control | [9] 90 % of control | dose: 12.5 mg/kg/injection, schedule: Q01DX009 (ip), vehicle: saline sonified 99 % of control | dose: 25.0 mg/kg/injection, schedule: Q01DX009 (ip), vehicle: saline sonified 99 % of control | [10] 92 % of control

Nc1ccn(CCCCc2ccccc2)c(=O)n1
inactive: dose: 100.0 mg/kg/injection, schedule: Q01DX001 (ip), vehicle: gum acacia 93 % of control | dose: 200.0 mg/kg/injection, schedule: Q01DX001 (ip), vehicle: gum acacia 95 % of control | dose: 400.0 mg/kg/injection, schedule: Q01DX001 (ip), vehicle: gum acacia 91 % of control

CCOC(=O)C1(C(=O)OCC)CCC2Nc3ccccc3CC(=O)N21 (stereo unspecified)
inactive: dose: 25.0 mg/kg/injection, schedule: Q04DX003 (ip), vehicle: Klucel (hydroxypropylcellulose) (HPC) 101 % of control | dose: 50.0 mg/kg/injection, schedule: Q04DX003 (ip), vehicle: Klucel (hydroxypropylcellulose) (HPC) 94 % of control | [6] 100 % of control

COc1ccc(CCO)cc1OC
inactive: dose: 50.0 mg/kg/injection, schedule: Q01DX001 (ip), vehicle: carboxymethylcellulose (CMC) 95 % of control | dose: 100.0 mg/kg/injection, schedule: Q01DX009 (ip), vehicle: water 93 % of control | dose: 100.0 mg/kg/injection, schedule: Q04DX003 (ip), vehicle: water 100 % of control | dose: 200.0 mg/kg/injection, schedule: Q01DX009 (ip), vehicle: water 93 % of control | dose: 200.0 mg/kg/injection, schedule: Q04DX003 (ip), vehicle: water 97 % of control | [7] 97 % of control | dose: 400.0 mg/kg/injection, schedule: Q01DX009 (ip), vehicle: water 95 % of control | dose: 400.0 mg/kg/injection, schedule: Q04DX003 (ip), vehicle: water 97 % of control

Nc1ncnc(N)c1NC(=O)c1ccc(OCc2ccccc2)c(Br)c1
inactive: dose: 100.0 mg/kg/injection, schedule: Q01DX001 (ip), vehicle: saline with Tween-80 93 % of control | dose: 200.0 mg/kg/injection, schedule: Q01DX001 (ip), vehicle: saline with Tween-80 97 % of control | dose: 400.0 mg/kg/injection, schedule: Q01DX001 (ip), vehicle: saline with Tween-80 96 % of control

CC(=O)OC1CCC2(C)C(CCC3C2CCC2(C)C(C(C)O)CCCC32)C1 (stereo unspecified)
inactive: dose: 100.0 mg/kg/injection, schedule: Q01DX001 (ip), vehicle: Klucel (hydroxypropylcellulose) (HPC) 88 % of control | dose: 200.0 mg/kg/injection, schedule: Q01DX001 (ip), vehicle: Klucel (hydroxypropylcellulose) (HPC) 98 % of control

CN(C)C1CC[N-]CC1.CN(C)C1CC[N-]CC1.[Cl][Pt+2][Cl]
inactive: [1] 110 % of control | [11] 110 % of control | [5] 92 % of control

N#CNN=Nc1cc(Cl)c(Cl)c(Cl)c1
inactive: dose: 12.0 mg/kg/injection, schedule: Q01DX009 (ip), vehicle: saline 101 % of control | [1] 109 % of control | dose: 25.0 mg/kg/injection, schedule: Q04DX003 (ip), vehicle: saline 105 % of control | [11] 97 % of control and 104 % of control | dose: 50.0 mg/kg/injection, schedule: Q04DX003 (ip), vehicle: saline 98 % of control | [5] 91 % of control

[CH3][Pb]([CH3])([CH3])[O]C(=O)CCl
inactive: dose: 0.39 mg/kg/injection, schedule: Q01DX009 (ip), vehicle: saline with Tween-80 97 % of control | dose: 0.78 mg/kg/injection, schedule: Q01DX009 (ip), vehicle: saline with Tween-80 97 % of control | dose: 1.56 mg/kg/injection, schedule: Q01DX009 (ip), vehicle: saline with Tween-80 95 % of control and 115 % of control

CCC(=O)c1ccc(N=Nc2c(N)nc(N)nc2N)cc1
inactive: [12] 110 % of control | [13] 94 % of control

CC(C)(C)NC(=O)NCc1ccc(Cl)cc1
inactive: dose: 100.0 mg/kg/injection, schedule: Q04DX002 (ip), vehicle: Klucel (hydroxypropylcellulose) (HPC) 100 % of control | dose: 200.0 mg/kg/injection, schedule: Q04DX002 (ip), vehicle: Klucel (hydroxypropylcellulose) (HPC) 88 % of control | dose: 400.0 mg/kg/injection, schedule: Q04DX002 (ip), vehicle: Klucel (hydroxypropylcellulose) (HPC) 111 % of control

O=C1c2cccc(S(=O)(=O)O)c2C(=O)c2cccc(S(=O)(=O)O)c21
inactive: dose: 50.0 mg/kg/injection, schedule: Q01DX001 (ip), vehicle: saline 102 % of control | [12] 109 % of control | [13] 111 % of control | dose: 400.0 mg/kg/injection, schedule: Q01DX001 (ip), vehicle: saline 109 % of control

Clc1ccc(N=C/C=C/c2ccccc2)cc1
inactive: dose: 25.0 mg/kg/injection, schedule: Q04DX003 (ip), vehicle: other 95 % of control | dose: 50.0 mg/kg/injection, schedule: Q04DX003 (ip), vehicle: other 108 % of control | dose: 100.0 mg/kg/injection, schedule: Q04DX003 (ip), vehicle: other 100 % of control

CN(C)c1ccc(/C=C2\CC(C)(C)c3ccccc3C2=O)cc1
inactive: [8] 103 % of control | dose: 200.0 mg/kg/injection, schedule: Q04DX003 (ip), vehicle: saline sonified 97 % of control | dose: 400.0 mg/kg/injection, schedule: Q04DX003 (ip), vehicle: saline sonified 103 % of control

CC(C)(Cl)N=Nc1ccc([N+](=O)[O-])cc1[N+](=O)[O-]
inactive: [2] 96 % of control | [3] 98 % of control | [4] 88 % of control

NC(N)=NCCCCCCN=C(N)N
inactive: dose: 6.25 mg/kg/injection, schedule: Q01DX Z (oral), vehicle: saline 106 % of control | [9] 100 % of control | dose: 12.5 mg/kg/injection, schedule: Q01DX Z (oral), vehicle: saline 103 % of control | dose: 12.5 mg/kg/injection, schedule: Q04DX003 (ip), vehicle: saline with Tween-80 100 % of control | dose: 25.0 mg/kg/injection, schedule: Q01DX Z (oral), vehicle: saline 103 % of control | [10] 99 % of control and 101 % of control
